Literature values in patent publication US20230381275A1, “MUSCULAR FUNCTION IMPROVING AGENT FOR SKELETAL MUSCLE OF WHICH FUNCTION IS DEGRADED DUE TO AGING” (OSAKA UNIVERSITY, priority 2020, published 2023).

system: fibroblasts; details: see Patent Document 1; cited from earlier work

Substance	type III collagen production-promoting effect / type III collagen secretion
fragment of osteopontin having SVVYGLR (SEQ ID No.: 1) at the C-terminus: thrombin-cleaved fragment of human osteopontin, or a portion thereof, having the sequence SVVYGLR at the C-terminus	effect equivalent to type III collagen production-promoting effect of SVVYGLR

system: not given; details: relative to SVVYGLR (SEQ ID NO.: 1); earlier work of the inventors; cited from earlier work

Substance	angiogenic effect
SVVFGLR [SEQ ID No.: 2]	maintained
SVVWGLR [SEQ ID No.: 3]	maintained
SVVYGL [SEQ ID NO.: 4]	maintained
SVVYGLRG [SEQ ID NO.: 10]	maintained
VVYGLR [SEQ ID NO.: 5]	maintained
